The text below walks through data of PMC3906007, “Discovery of a Small Molecule Agonist of Phosphatidylinositol 3-Kinase p110α That Reactivates Latent HIV-1” (PLoS ONE, 2014).

Series [1] has as its system latent HIV-1 in J89GFP cells. The experiment in a line: Latent HIV-1 reactivation in J89GFP cells (EGFP positive cells, flow cytometry). The format is cell-based. To be noted: J89GFP. The method, then: Three different cell lines of HIV-1 latency were used in this study. These included J89GFP, U1 and ACH-2 cells. The J89GFP cells were a kind gift from Dr. David Levy. The ACH-2 and U1 cells were obtained through the AIDS Research and Reference Reagent Program, Division of AIDS, NIAID, NIH: Dr. Thomas Folks contributor [19]–[21]. Reactivation of latent HIV-1 in the J89GFP cells was measured by quantifying the percentage of EGFP positive cells using a BD FACScan flow cytometer with BD FACSDiva software (BD Biosciences, CA), as described previously. Reactivation of latent HIV-1 in the ACH-2 and U 1 cells was assessed by quantitative analysis of initiated and elongated HIV-1 transcripts, as described previously. All 3 cell lines were maintained in RMPI 1640 medium supplemented with 10% FBS, 0.3 mg/mL L-glutamine, 100 U/mL penicillin, and 100 µg/mL streptomycin at 37°C in humidified air with 5% CO2.
To identify novel activators of latent HIV-1 expression, we screened 640 pure natural products from the TimTec Natural Compound Library at a concentration of 10 ng/mL for 24 hrs in a Jurkat cell (J89GFP) model of latency for their cytotoxicity and ability to reactivate HIV-1 expression. J89GFP cells contain a stably integrated, full-length HIV-1 provirus with an enhanced GFP (EGFP) reporter incorporated into the viral genome. The viral genome in these cells is transcriptionally silent. However, upon stimulation viral transcription is activated and viral expression can be measured by EGFP production. […].

A further series relates to T cell. Also on record: method as in PMID 22732922. Particulars: cited from earlier work.
Series [2] can be described thus: Cytotoxicity (MTT or CellTiter 96), 293T. The format is cell-based. Particulars: human, 293T cells; 24 hour incubation; mean ± SD, 3 replicates. As to the method:
(§1) Following a 24 hour incubation period, cell viability was measured using either the MTT (Roche Applied Science, Indianapolis, IN) or CellTiter 96 proliferation (Promega, WI) assay.

The subject of series [3] is latent HIV-1 in CD8+-depleted MNC. The format is cell-based. Particulars: across all four donors; 0.5 or 2 µM. An excerpt: Healthy HIV-1 uninfected blood donors and HIV-1-infected donors on suppressive cART with plasma HIV-1 RNA less than 50 copies/mL for >2 year provided written informed consent and underwent a large volume phlebotomy (100–200 mLs). The protocol for blood donation was approved by the Institutional Review Board of the University of Pittsburgh (IRB #PRO10070203).
(§2) CD8+T-cells were depleted from whole blood using RosetteSep Human CD8 Depletion Cocktail (StemCell Technologies, Vancouver, BC) according to manufacturer's instructions. 2×10^6 CD4^+ MNC cells were seeded in triplicate per treatment in 48-well plates and allowed to rest overnight. […] Activation controls were treated with CD3/CD28 Dynabeads (Life Technologies, Grand Island, NY). After 7 days of incubation, supernatants from triplicate wells were pooled, centrifuged (500 g×5 min), and stored at −80°C. HIV-1 RNA levels in supernatants were determined using the COBAS® AmpliPrep/COBAS® TaqMan® HIV-1 Test, v2.0 (Roche, Indianapolis, IN).

Series [4] is described as follows: Cytotoxicity (MTT or CellTiter 96), Jurkat. The format is cell-based. Particulars: human, Jurkat cells; 24 hour incubation; mean ± SD, 3 replicates. The method, then: as §1
The nature of series [5]: Cytotoxicity (MTT or CellTiter 96), CD8+-depleted MNC. The series is classed as cell-based. To be noted: human, CD8+-depleted mononuclear cells (MNC) from whole blood; 24 hour incubation; mean of 2 replicates. The method, then:
as §1
as §2, with “overnight. All wells were maintained in 81 nM efavirenz.” for “overnight.”

The test system of another series is PI3K p110δ RNA. The experiment in a line: PI3K isoform RNA transcript levels in J89GFP cells, p110δ. The series is classed as cell-based. To be noted: 5 µM.
The test system of series [6] is HIV-1 RNA expression in resting CD4+ T cells. To be noted: single 400 mg dose; 8 HIV-infected patients on suppressive cART; cited from earlier work.
Series [7] in a line: Cytotoxicity (MTT or CellTiter 96), HeLa. The series is classed as cell-based. Particulars: human, HeLa cells; 24 hour incubation; mean ± SD, 3 replicates. As to the method:
as §1

On the set-up of series [8]: method as in PMID 20936324. Particulars: phase II clinical trial, ovarian cancer; cited from earlier work.

`CC(=O)O[C@@]12C[C@@H](C)[C@@]3(O)[C@@H](C=C(CO)C[C@]4(O)C(=O)C(C)=C[C@@H]34)[C@@H]1C2(C)C` [prostratin, reference compound]: the “Latent HIV-1 reactivation activity in presence of PI3K inhibitor wortmannin” value in series [1] (20 nM wortmannin) is “remained unaffected”. In addition, the “Latent HIV-1 reactivation activity in presence of Akt Inhibitor IV” value in series [1] (500 nM Akt Inhibitor IV) is given as “remained unaffected”. In addition, the “Latent HIV-1 reactivation activity in presence of PKC inhibitor Gö6983” value in series [1] (500 nM Go6983) is given as “attenuated”. In addition, the “Latent HIV-1 reactivation activity in presence of JNK inhibitor SP600125” value in series [1] (1 µM SP00125) is given as “remained unaffected”. Moreover, the “Latent HIV-1 reactivation activity in presence of NFAT/calcineurin inhibitor cyclosporin A” value in series [1] (1 µM cyclosporin A) was “remained unaffected”. In addition, the “Global T cell activation” value in the series with T cell is “induces global T cell activation”.

With `O=C(CCCCCCC(=O)Nc1ccccc1)NO` [SAHA, vorinostat, reference compound], the CC50 (as a rule, the concentration at which the toxic effect on the cells reaches its halfway point) at 24 h worked out at 14.1 ± 0.2 µM in series [2], 10 ± 0.1 µM in series [4], 0.7 µM in series [5] and 11.3 ± 0.3 µM in [7]. The “Capacity to increase HIV-1 expression in the CD8+-depleted MNC” value in series [3] is listed as “very limited capacity”. In addition, the “Effect on PI3K p110δ RNA transcript levels / gene expression” value with PI3K p110δ RNA is reported as “significantly up-regulate”. Also, in series [6], the “HIV-1 RNA expression in resting CD4+ T cells” value is given as “induced an increase in HIV-1 RNA expression”.

Consider `CCC/C=C/C=C/C(=O)O[C@H]1/C(=C/C(=O)OC)C[C@H]2C[C@H]([C@@H](C)O)OC(=O)C[C@H](O)C[C@@H]3C[C@H](OC(C)=O)C(C)(C)[C@](O)(C[C@@H]4C/C(=C/C(=O)OC)C[C@H](/C=C/C(C)(C)[C@]1(O)O2)O4)O3` [bryostatin], for which the “Adverse event in study participants” value in series [8] was “severe myalgia in all study participants”.
